Key:
[1] = Hygroscopicity by scanned gravimetric vapour sorption; format: physicochemical; conditions: upwards scan; for Hygroscopicity classification: European Pharmacopea Technical Guide (1999), 40% to 80% relative humidity; for Hygroscopicity mass change: between 40% and 80% relative humidity
Excerpt: The mass change between 40% relative humidity and 80% relative humidity in the upwards scan was considered.

human Cav1.2 channel = biological target: T1, human Cav1.2 channel (Homo sapiens, UniProt Q13936); experiment: In vitro assay L channel (FLIPR, KCl-induced calcium fluorescence); format: cell-based; conditions: HEK293 cells expressing human Cav1.2 with β-2a and α2δ-1; 20 mM KCl; read-out: L channel antagonistic activity IC50
T1 construct: expressed in transfected cells; host or cells: HEK293
Description: The L channel antagonistic activity (IC50 values) of Reference Examples 1A, 2A, and 3A is determined in accordance with the following experimental method.
Human embryonic kidney (HEK293) cells expressing the human Cav1.2 channel in addition to the auxiliary subunits β-2a and α2δ-1, are grown in culture medium (DMEM containing 10% heat-inactivated fetal calf serum (FCS), 100 U/ml penicillin, 100 μg/ml streptomycin, 100 μg/ml G418, 40 μg/ml zeocin and 100 μg/ml hygromycin). The cells are seeded at 20.000 cells/well into 384-well black clear bottom sterile plates (poly-L-lysine-coated, Becton Dickinson). The seeded plates are incubated overnight at 37° C. in 5% CO2. The KCl solution is prepared as 80 mM stock solution in assay buffer (HBSS containing 0.1% BSA, 20 mM HEPES, 0.375 g/l NaHCO3, adjusted to pH 7.4 with NaOH) for use in the assay at a final concentration of 20 mM. Antagonists are prepared as 10 mM stock solutions in DMSO, then diluted in 384 w plates first in DMSO, then in assay buffer to obtain 3× stocks. On the day of the assay, 25 μl of staining buffer (HBSS containing 20 mM HEPES, 0.375 g/l NaHCO3, and 3 μM of the fluorescent calcium indicator fluo-4 AM (1 mM stock solution in DMSO, containing 10% pluronic) is added to each well of the seeded plate. The 384-well cell-plates are incubated for 60 min at 37° C. in 5% CO2 followed by washing with 2×50 μl per well using assay buffer leaving 50 μl/well of this buffer for equilibration at room temperature (30-60 min). Within the Fluorescent Imaging Plate Reader (FLIPR, Molecular Devices), antagonists are added to the plate in a volume of 25 μl/well, incubated for 3 min and finally 25 μl/well of KCl solution is added for cellular depolarization. Fluorescence is measured for each well at 2 second intervals for 8 minutes, and the area under the curve of each fluorescence peak is compared to the area of the fluorescence peak induced by 20 mM KCl with vehicle in place of antagonist. […]

isolated mouse hearts = experiment: Effect on isolated hearts according to the Langendorff method; conditions: read-out: EC50 Langendorff experiment
Description: Effect on Isolated Hearts According to the Langendorff Method (Lgdff)
The Reference Examples 1A, 2A, and 3A were tested for their potential to reduce blood pressure and their effect on the contractility of the heart muscle. EC50 values on isolated mouse hearts were determined according to Literature (Doring H J., The isolated perfused heart according to Langendorff technique—function—application, Physiol. Bohemoslov. 1990, 39(6), 481-504; Kligfield P, Homer H, Brachfeld N., A model of graded ischemia in the isolated perfused rat heart, J. Appl. Physiol. 1976 June, 40(6), 1004-8).

T1 sequence (Q13936 whole entry): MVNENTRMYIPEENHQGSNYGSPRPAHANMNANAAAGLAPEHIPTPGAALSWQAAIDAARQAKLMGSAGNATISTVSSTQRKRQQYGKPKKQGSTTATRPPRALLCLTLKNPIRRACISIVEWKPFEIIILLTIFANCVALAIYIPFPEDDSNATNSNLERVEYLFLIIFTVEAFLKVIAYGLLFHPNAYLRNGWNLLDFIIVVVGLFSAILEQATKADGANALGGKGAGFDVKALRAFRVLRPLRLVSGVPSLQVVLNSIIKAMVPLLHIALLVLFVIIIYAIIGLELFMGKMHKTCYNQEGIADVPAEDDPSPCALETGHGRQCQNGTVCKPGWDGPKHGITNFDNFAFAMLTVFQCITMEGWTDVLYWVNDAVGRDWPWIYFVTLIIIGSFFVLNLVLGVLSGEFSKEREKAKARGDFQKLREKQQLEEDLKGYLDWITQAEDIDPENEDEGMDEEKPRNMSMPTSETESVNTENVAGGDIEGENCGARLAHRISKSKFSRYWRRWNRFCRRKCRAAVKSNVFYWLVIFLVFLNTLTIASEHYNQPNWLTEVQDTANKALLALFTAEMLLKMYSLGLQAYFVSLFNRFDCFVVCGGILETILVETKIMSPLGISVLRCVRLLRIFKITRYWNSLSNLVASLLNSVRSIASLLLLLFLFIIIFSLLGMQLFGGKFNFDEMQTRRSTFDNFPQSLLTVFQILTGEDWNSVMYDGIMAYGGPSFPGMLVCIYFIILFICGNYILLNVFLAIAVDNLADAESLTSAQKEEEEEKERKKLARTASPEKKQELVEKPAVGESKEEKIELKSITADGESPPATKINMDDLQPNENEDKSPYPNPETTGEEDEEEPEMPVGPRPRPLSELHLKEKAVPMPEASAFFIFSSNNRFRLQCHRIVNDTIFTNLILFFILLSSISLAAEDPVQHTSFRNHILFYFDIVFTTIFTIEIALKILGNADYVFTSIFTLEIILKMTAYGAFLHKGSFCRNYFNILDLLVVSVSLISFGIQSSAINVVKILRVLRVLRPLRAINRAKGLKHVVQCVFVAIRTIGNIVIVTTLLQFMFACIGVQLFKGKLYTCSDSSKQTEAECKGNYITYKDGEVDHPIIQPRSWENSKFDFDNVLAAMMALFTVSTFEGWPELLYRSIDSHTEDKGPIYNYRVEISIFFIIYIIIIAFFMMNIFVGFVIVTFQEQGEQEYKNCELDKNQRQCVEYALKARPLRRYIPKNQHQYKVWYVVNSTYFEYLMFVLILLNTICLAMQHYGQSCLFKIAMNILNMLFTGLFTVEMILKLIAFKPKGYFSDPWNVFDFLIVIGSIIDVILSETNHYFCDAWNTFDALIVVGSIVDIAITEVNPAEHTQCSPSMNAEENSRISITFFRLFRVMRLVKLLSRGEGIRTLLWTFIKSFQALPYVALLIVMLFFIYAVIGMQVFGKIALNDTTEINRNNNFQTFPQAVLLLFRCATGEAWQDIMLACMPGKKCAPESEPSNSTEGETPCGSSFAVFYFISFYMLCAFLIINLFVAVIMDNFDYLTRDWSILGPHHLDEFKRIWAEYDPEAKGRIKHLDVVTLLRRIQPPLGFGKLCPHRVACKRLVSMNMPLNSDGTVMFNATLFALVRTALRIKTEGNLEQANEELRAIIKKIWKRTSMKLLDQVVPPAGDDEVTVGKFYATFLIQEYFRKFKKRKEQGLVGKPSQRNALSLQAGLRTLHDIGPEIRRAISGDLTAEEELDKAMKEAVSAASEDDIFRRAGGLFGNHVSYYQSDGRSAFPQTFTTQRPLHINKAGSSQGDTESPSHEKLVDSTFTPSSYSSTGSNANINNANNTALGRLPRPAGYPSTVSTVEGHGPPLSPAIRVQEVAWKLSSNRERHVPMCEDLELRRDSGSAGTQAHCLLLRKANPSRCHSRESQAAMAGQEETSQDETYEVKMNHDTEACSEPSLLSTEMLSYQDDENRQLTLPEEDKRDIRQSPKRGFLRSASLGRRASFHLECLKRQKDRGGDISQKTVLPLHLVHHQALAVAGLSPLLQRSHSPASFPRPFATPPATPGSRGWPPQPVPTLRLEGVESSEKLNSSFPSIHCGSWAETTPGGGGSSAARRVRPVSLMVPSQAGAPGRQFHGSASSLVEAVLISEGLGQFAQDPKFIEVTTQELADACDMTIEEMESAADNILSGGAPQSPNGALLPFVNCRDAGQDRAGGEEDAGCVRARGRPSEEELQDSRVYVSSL
T1 sequence (Q08289 whole entry partner): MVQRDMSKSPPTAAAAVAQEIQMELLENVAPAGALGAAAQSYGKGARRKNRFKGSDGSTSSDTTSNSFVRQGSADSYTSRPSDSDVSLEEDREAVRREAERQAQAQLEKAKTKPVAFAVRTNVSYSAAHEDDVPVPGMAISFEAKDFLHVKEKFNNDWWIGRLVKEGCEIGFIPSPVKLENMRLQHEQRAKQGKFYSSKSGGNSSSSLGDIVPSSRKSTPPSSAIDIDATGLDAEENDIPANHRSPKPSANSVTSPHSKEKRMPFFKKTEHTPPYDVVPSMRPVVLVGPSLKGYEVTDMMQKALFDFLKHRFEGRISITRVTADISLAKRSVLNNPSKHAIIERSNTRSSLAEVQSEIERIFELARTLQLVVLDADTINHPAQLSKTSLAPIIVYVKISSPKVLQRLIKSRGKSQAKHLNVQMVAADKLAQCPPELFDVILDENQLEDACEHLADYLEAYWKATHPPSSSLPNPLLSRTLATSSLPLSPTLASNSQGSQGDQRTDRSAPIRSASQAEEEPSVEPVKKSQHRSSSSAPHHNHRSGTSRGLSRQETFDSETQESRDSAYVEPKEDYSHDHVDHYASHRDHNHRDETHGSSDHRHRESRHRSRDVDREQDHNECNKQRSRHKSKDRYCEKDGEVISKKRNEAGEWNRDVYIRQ
T1 sequence (P54289 25-946 partner limits assumed): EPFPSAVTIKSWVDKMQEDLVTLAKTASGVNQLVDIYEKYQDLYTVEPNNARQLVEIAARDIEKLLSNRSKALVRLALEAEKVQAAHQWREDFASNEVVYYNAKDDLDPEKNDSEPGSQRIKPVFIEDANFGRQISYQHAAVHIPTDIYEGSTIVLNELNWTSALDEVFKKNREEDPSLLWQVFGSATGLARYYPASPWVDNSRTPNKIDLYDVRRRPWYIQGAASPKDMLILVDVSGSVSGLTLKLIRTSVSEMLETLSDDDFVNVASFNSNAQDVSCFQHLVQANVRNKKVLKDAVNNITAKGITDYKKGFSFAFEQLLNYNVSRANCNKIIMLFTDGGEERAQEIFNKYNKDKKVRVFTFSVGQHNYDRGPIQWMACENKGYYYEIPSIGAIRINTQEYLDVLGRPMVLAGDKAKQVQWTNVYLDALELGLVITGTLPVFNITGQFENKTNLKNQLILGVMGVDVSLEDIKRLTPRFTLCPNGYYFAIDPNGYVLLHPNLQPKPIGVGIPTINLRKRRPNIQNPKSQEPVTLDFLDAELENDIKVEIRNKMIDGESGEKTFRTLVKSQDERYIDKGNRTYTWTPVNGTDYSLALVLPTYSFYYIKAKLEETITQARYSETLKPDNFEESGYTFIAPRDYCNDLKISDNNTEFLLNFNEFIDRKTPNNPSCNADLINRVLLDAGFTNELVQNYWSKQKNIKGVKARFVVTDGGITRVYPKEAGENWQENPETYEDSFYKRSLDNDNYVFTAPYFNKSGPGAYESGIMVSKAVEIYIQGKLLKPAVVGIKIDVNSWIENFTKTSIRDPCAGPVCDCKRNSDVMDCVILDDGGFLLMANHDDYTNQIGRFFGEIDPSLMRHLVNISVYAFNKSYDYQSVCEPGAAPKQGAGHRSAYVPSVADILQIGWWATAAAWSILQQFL
T1 sequence (P54289 947-1103 partner limits assumed): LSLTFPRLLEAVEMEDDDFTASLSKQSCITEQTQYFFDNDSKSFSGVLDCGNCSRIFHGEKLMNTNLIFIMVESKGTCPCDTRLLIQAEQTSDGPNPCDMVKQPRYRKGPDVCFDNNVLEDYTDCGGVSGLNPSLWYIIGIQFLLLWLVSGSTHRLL

With `Br.Br.COc1ccc(OC)c2[nH]c(CCCN(C)CCC3(OC(=O)C(C)C)CC4CCC3C=C4c3ccccc3)nc12` (stereo not drawn) [di-hydrobromic acid salt of COMPOUND] the Hygroscopicity classification [1] was “Non hygroscopic” and the Hygroscopicity mass change [1] was 0.1%.
`COc1ccc(OC)c2[nH]c(CCCN(C)CC[C@@]3(OC(=O)C(C)C)C[C@@H]4CC[C@H]3C=C4c3ccccc3)nc12` [Reference Example 2A, Isobutyric acid (1S,2S,4S)-2-(2-{[3-(4,7-dimethoxy-1H-benzoimidazol-2-yl)-propyl]-methyl-amino}-ethyl)-5-phenyl-bicyclo[2.2.2]oct-5-en-2-yl ester] showed an IC50 (human Cav1.2 channel) of 156 to 439 nM.
In the case of `COc1ccc(OC)c2[nH]c(CCCN(C)CCC3(OC(=O)C(C)C)CC4CCC3C=C4c3ccccc3)nc12.COc1ccc(OC)c2[nH]c(CCCN(C)CCC3(OC(=O)C(C)C)CC4CCC3C=C4c3ccccc3)nc12.O=C(O)/C=C/C(=O)O.O=C(O)/C=C/C(=O)O.O=C(O)/C=C/C(=O)O` (stereo not drawn) [sesqui-fumaric acid salt of COMPOUND], the Hygroscopicity classification [1] is reported as “Non hygroscopic” and the Hygroscopicity mass change [1] is reported as 0.1%.
In the case of `COc1ccc(OC)c2[nH]c(CCCN(C)CCC3(OC(=O)C(C)C)CC4CCC3C=C4c3ccccc3)nc12.O=C(O)/C=C\C(=O)O.O=C(O)/C=C\C(=O)O` (stereo not drawn) [di-maleic acid salt of COMPOUND], the Hygroscopicity classification [1] is reported as “Non hygroscopic” and the Hygroscopicity mass change [1] is reported as 0.1%.
In the case of `COc1ccc(OC)c2[nH]c(CCCN(C)CC[C@]3(OC(=O)C(C)C)C[C@H]4CC[C@@H]3C=C4c3ccccc3)nc12` (racemic) [Reference Example 1A, rac-Isobutyric acid (1R*,2R*,4R*)-2-(2-{[3-(4,7-dimethoxy-1H-benzoimidazol-2-yl)-propyl]-methyl-amino}-ethyl)-5-phenyl-bicyclo[2.2.2]oct-5-en-2-yl ester], the IC50 (human Cav1.2 channel) is reported as 156 to 439 nM and the EC50 (isolated mouse hearts) is reported as 5 nM.
In the case of `COc1ccc(OC)c2[nH]c(CCCN(C)CCC3(OC(=O)C(C)C)CC4CCC3C=C4c3ccccc3)nc12.Cl.Cl` (stereo not drawn) [di-hydrochloric acid salt of COMPOUND], the Hygroscopicity classification [1] is reported as “Slightly hygroscopic (mass” and the Hygroscopicity mass change [1] is reported as “change 0.5%)”.
With `COc1ccc(OC)c2[nH]c(CCCN(C)CC[C@]3(OC(=O)C(C)C)C[C@H]4CC[C@@H]3C=C4c3ccccc3)nc12` [Reference Example 3A, Isobutyric acid (1R,2R,4R)-2-(2-{[3-(4,7-dimethoxy-1H-benzoimidazol-2-yl)-propyl]-methyl-amino}-ethyl)-5-phenyl-bicyclo[2.2.2]oct-5-en-2-yl ester] the IC50 (human Cav1.2 channel) was 156 to 439 nM.

Reference: patent US8492555B2, “Salts of isobutyric acid (1 R*, 2R*, 4R*)-2-(2-{[3-(4,7-dimethoxy-1 H-benzoimidazol-2-yl)-methyl-amino}-ethyl)-5-phenyl-bicyclo[2.2.2]oct-5-en-2-yl ester” (Actelion Pharmaceuticals Ltd., priority 2008, dated 2013)
